Columns and labels:
[1] = system: human B lymphocytes from allergic donors; conditions: cited from earlier work
[2] = system: eosinophils in the bronchoalveolar lavage (BAL) fluids; test: Sephadex-induced eosinophilia: eosinophil counts in the BAL fluid
[3] = system: airway hyperresponsiveness induced by Sephadex G100 particles; test: Sephadex G100-induced lung hyperresponsiveness in rats (bronchoconstriction by Ach); conditions: G-100 rats
[4] = system: airway hyperresponsiveness; conditions: inhalation, 2 to 20 mg, mild-moderate asthmatic patients; AMP, exercise, UNDW, CAH; cited from earlier work
[5] = system: airway response following specific antigen challenge; conditions: asthmatic patients; cited from earlier work
[6] = system: T lymphocytes (Th2) production of IL-5; conditions: preliminary in-vivo data, atopic asthmatic patients; cited from earlier work

SMILES | effect on IL-4 dependent IgE synthesis [1] | counts of eosinophils in the BAL fluid ([2]; Andolast 3 mg/kg, Sephadex control 2.6×10^6) | Protective Effect (%) ([3]; Andolast 3 mg/kg i.m., calculated from Ach ED50) | Ach ED50 ([3]; Andolast 3 mg/kg i.m., dose of Ach i.v. producing 50% response) | airway hyperresponsiveness to specific and non-specific bronchostimulation challenges [4] | early and late airway response following specific antigen challenge [5] | effect on Th2 production of IL-5 [6] | counts of eosinophils in the BAL fluid ([2]; Prednisolone 1 mg/kg, Sephadex control 2.6×10^6, normal rats about 1×10^4) | eosinophilia in the BAL fluids, in words ([2]; Prednisolone 10 mg/kg) | Protective Effect (%) ([3]; Prednisolone 1 mg/kg orally) | Protective Effect (%) ([3]; Prednisolone 10 mg/kg orally)
O=C(Nc1ccc(-c2nnn[nH]2)cc1)c1ccc(-c2nnn[nH]2)cc1 [Andolast, N-4-(5-tetrazolyl)-phenyl-4-(5-tetrazolyl)-benzamide] | potent inhibitory effect | 1.75×10^6 | 33.3% | 0.20 mg/kg | prevents in a dose-dependent fashion | completely prevents | inhibitory effect |  |  |  | 
C[C@]12C=CC(=O)C=C1CC[C@@H]1[C@@H]2[C@@H](O)C[C@@]2(C)[C@H]1CC[C@]2(O)C(=O)CO [Prednisolone] |  |  |  |  |  |  |  | 2×10^6 | totally suppressed | 11.1% | 88.8%

— patent publication US8809306B2, “Combination andolast/glucocorticoids” (Rottapharm S.p.A., priority 2006, dated 2014)
